Measured values reported in patent US7348425B2, “Inhibitors of HCV replication” (Bristol-Myers Squibb Company, priority 2004, dated 2008).

Target: T1, HCV NS5B RdRp genotype 1b (Hepatitis C virus genotype 1b, UniProt Q9WMX2)
T1 construct: The protein was expressed with an 18 amino acid C-terminal truncation to enhance the solubility; made in house; host or cells: E. coli BL21 (DE3), pET21a
Test: Modified HCV NS5B RdRp enzyme assay (with preincubation)
Format: biochemical
Conditions: modified method (with preincubation)
Method: HCVNS5B RdRp cloning, expression, and purification. The cDNA encoding the NS5B protein of HCV, genotype 1b, was cloned into the pET21a expression vector. The protein was expressed with an 18 amino acid C-terminal truncation to enhance the solubility. The E. coli competent cell line BL21 (DE3) was used for expression of the protein. Cultures were grown at 37° C. for ˜4 hours until the cultures reached an optical density of 2.0 at 600 nm. The cultures were cooled to 20° C. and induced with 1 mM IPTG. Fresh ampicillin was added to a final concentration of 50 μg/ml and the cells were grown overnight at 20° C.
Cell pellets (3 L) were lysed for purification to yield 15-24 mgs of purified NS5B. The lysis buffer consisted of 20 mM Tris-HCl, pH 7.4, 500 mM NaCl, 0.5% triton X-100, 1 mM DTT, 1 mM EDTA, 20% glycerol, 0.5 mg/ml lysozyme, 10 mM MgCl2, 15 ug/ml deoxyribonuclease I, and Complete TM protease inhibitor tablets (Roche). After addition of the lysis buffer, frozen cell pellets were resuspended using a tissue homogenizer. To reduce the viscosity of the sample, aliquots of the lysate were sonicated on ice using a microtip attached to a Branson sonicator. The sonicated lysate was centrifuged at 100,000×g for 1 hr at 4° C. and filtered through a 0.2 μm filter unit (Corning).
The protein was purified using three sequential chromatography steps: Heparin sepharose CL-6B, polyU sepharose 4B, and Hitrap SP sepharose (Pharmacia). The chromatography buffers were identical to the lysis buffer but contained no lysozyme, deoxyribonuclease I, MgCl2 or protease inhibitor and the NaCl concentration of the buffer was adjusted according to the requirements for charging the protein onto the column. Each column was eluted with a NaCl gradient which varied in length from 5-50 column volumes depending on the column type. After the final chromatography step, the resulting purity of the enzyme is >90% based on SDS-PAGE analysis. The enzyme was aliquoted and stored at −80° C.
Standard HCV NS5B RdRp enzyme assay. HCV RdRp genotype Ib assays were run in a final volume of 60 μl in 96 well plates (Costar 3912). The assay buffer is composed of 20 mM Hepes, pH 7.5, 2.5 mM KCl, 2.5 mM MgCl2, 1 mM DTT, 1.6 U RNAse inhibitor (Promega N2515), 0.1 mg/ml BSA (Promega R3961), and 2% glycerol. All compounds were serially diluted (3-fold) in DMSO and diluted further in water such that the final concentration of DMSO in the assay was 2%. HCV RdRp genotype 1b enzyme was used at a final concentration of 28 nM. A polyA template was used at 6 nM, and a biotinylated oligo-dT12 primer was used at 180 nM final concentration. Template was obtained commercially (Amersham 27-4110). Biotinylated primer was prepared by Sigma Genosys. ^3H-UTP was used at 0.6 μCi (0.29 μM total UTP). Reactions were initiated by the addition of enzyme, incubated at 30° C. for 60 min, and stopped by adding 25 μl of 50 mM EDTA containing SPA beads (4 μg/μl, Amersham RPNQ 0007). Plates were read on a Packard Top Count NXT after >1 hr incubation at room temperature.
Modified HCV NS5B RdRp enzyme assay. A modified enzyme assay was performed essentially as described for the standard enzyme assay except for the following: The biotinylated oligo dT12 primer was precaptured on streptavidin-coated SPA beads by mixing primer and beads in assay buffer and incubating at room temperature for one hour. Unbound primer was removed after centrifugation. The primer-bound beads were resuspended in 20 mM Hepes buffer, pH 7.5 and used in the assay at final concentrations of 20 nM primer and 0.67 μg/μl beads. Order of addition in the assay: enzyme (14 nM) was added to diluted compound followed by the addition of a mixture of template (0.2 nM), ^3H-UTP (0.6 μCi, 0.29 μM), and primer-bound beads, to initiate the reaction; concentrations given are final. Reactions were allowed to proceed for 4 hours at 30° C.
The IC50 values for compounds were determined using seven different [I]. […]

T1 sequence (Q9WMX2 2420-2992): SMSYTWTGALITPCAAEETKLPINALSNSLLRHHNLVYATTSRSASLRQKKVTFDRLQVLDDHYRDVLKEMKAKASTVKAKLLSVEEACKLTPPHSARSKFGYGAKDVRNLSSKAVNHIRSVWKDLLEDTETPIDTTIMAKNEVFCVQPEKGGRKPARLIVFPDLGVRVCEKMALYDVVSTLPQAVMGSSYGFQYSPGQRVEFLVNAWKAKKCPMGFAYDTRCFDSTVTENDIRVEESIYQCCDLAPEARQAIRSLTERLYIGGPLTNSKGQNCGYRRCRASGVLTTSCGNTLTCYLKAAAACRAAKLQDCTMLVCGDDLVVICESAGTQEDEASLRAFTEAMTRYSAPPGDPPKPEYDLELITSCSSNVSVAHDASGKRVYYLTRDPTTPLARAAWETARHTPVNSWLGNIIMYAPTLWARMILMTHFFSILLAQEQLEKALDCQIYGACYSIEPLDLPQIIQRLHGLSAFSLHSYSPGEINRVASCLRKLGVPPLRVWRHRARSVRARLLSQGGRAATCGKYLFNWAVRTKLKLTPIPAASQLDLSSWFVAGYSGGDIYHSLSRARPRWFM

SMILES	IC50 [nM]
COC(=O)c1ccc2c(C3CCCCC3)c3n(c2c1)CC(CO)Cc1ccccc1-3 (stereo not shown)	> 1000
CS(=O)(=O)NC(=O)c1ccc2c(C3CCCCC3)c3n(c2c1)CC(C(=O)N1CCOCC1)Cc1ccccc1-3 (stereo not shown) [drawing 348]	20 to 1000
COC(=O)c1ccc2c(C3CCCCC3)c3n(c2c1)CC(C(=O)N1CCOCC1)=Cc1ccc(Cl)cc1-3	> 1000
COC(=O)c1ccc2c(C3CCCCC3)c3n(c2c1)CC(C(=O)OCc1ccccc1)=Cc1ccccc1-3 [drawing 322]	> 1000
CS(=O)(=O)NC(=O)c1ccc2c(C3CCCCC3)c3n(c2c1)CC(C(=O)N1CCOCC1)Cc1ccccc1-3 (stereo not shown) [drawing 349]	20 to 1000
O=C(NS(=O)(=O)C1CC1)c1ccc2c(C3CCCCC3)c3n(c2c1)CC(C(=O)N1CCOCC1)Cc1ccccc1-3 (stereo not shown) [drawing 289]	20 to 1000
O=C(NS(=O)(=O)C1CC1)c1ccc2c(C3CCCCC3)c3n(c2c1)CC(C(=O)N1CCOCC1)Cc1ccccc1-3 (stereo not shown) [drawing 288]	20 to 1000

Same assay, conditions: preincubation protocol

IC50 [nM]	SMILES
> 12500	COC(=O)C1=Cc2occc2-c2c(C3CCCCC3)c3ccc(C(=O)OC)cc3n2C1
> 4000	COC(=O)c1ccc2c(C3CCCCC3)c3n(c2c1)CC(C(=O)N1CCOCC1)=Cc1occc1-3
1000 to 10000	COC(=O)c1ccc2c(C3CCCCC3)c3n(c2c1)CC(C(=O)O)=Cc1occc1-3
10 to 1000	COC(=O)c1ccc2c(C3CCCCC3)c3n(c2c1)CC(C(=O)NCC=O)=Cc1cc(OC)ccc1-3
> 4000	COC(=O)c1ccc2c(C3CCCCC3)c3n(c2c1)CC(C(=O)N1C[C@@H](C)O[C@@H](C)C1)=Cc1occc1-3
> 4000	COC(=O)c1ccc2c(C3CCCCC3)c3n(c2c1)C(O)c1cc(N(C)C)ccc1-3 (stereo not shown)
> 12500	COC(=O)C1=Cc2cc(N(C)C)ccc2-c2c(C3CCCCC3)c3ccc(C(=O)OC)cc3n2C1

SMILES	IC50 [nM]
CNS(=O)(=O)NC(=O)c1ccc2c(C3CCCCC3)c3n(c2c1)CC(C(=O)N1C[C@@H](C)O[C@@H](C)C1)=Cc1cc(F)ccc1-3	10 to 1000

Test system: HCV replicon
Test: HCV replicon FRET assay
Format: cell-based
Conditions: Hepatitis C virus; FRET assay; read-out: EC50
Method: The IC50 values for compounds were determined using seven different [I]. IC50 values were calculated from the inhibition using the formula y=A+((B−A)/(1+((C/x)^D))). FRET Assay Preparation. To perform the HCV FRET screening assay, 96-well cell culture plates were used. The FRET peptide (Anaspec, Inc.) (Taliani et al., Anal. Biochem. 240:60-67 (1996), hereby incorporated by reference in its entirety) contains a fluorescence donor, EDANS, near one end of the peptide and an acceptor, DABCYL, near the other end. The fluorescence of the peptide is quenched by […] resonance energy transfer (RET) between the donor and the acceptor, but as the NS3 protease cleaves the peptide the products are released from RET quenching and the fluorescence of the donor becomes apparent. The assay reagent was made as follows: 5× cell Luciferase cell culture lysis reagent from Promega (#E153A) diluted to 1× with dH2O, NaCl added to 150 mM final, the FRET peptide diluted to 20 uM final from a 2 mM stock.
To prepare plates, HCV replicon cells, with or without a Renilla luciferase reporter gene, were trypsinized and placed into each well of a 96-well plate with titrated test compounds added in columns 3 through 12; columns 1 and 2 contained a control compound (HCV protease inhibitor), and the bottom row contained cells without compound. The plates were then placed in a CO2 incubator at 37 degrees C.
Assays. Subsequent to addition of the test compounds described above (FRET Assay Preparation), at various times the plate was removed and Alamar blue solution (Trek Diagnostics, #00-100) was added per well as a measure of cellular toxicity. After reading in a Cytoflour 4000 instrument (PE Biosystems), plates were rinsed with PBS and then used for FRET assay by the addition of 30 ul of the FRET peptide assay reagent described above (FRET Assay Preparation) per well. The plate was then placed into the Cytoflour 4000 instrument which had been set to 340 excite/490 emission, automatic mode for 20 cycles and the plate read in a kinetic mode. Typically, the signal to noise using an endpoint analysis after the reads was at least three-fold. Alternatively, after Alamar blue reading, plates were rinsed with PBS, 50 ul of DMEM (high glucose) without phenol red was added and plates were then used for luciferase assay using the Promega Dual-Glo Luciferase Assay System.
Compound analysis was determined by quantification of the relative HCV replicon inhibition and the relative cytotoxicity values. To calculate cytoxicity values, the average Alamar Blue fluorescence signals from the control wells were set as 100% non-toxic. The individual signals in each of the compound test wells were then divided by the average control signal and multiplied by 100% to determine […]. To calculate the HCV replicon inhibition values, an average background value was obtained from the two wells containing the highest amount of HCV protease inhibitor at the end of the assay period. These numbers were similar to those obtained from naïve Huh-7 cells.
The background numbers were then subtracted from the average signal obtained from the control wells and this number was used as 100% activity. The individual signals in each of the compound test wells were then divided by the averaged control values after background subtraction and multiplied by 100% to determine percent activity. EC50 values for a protease inhibitor titration were calculated as the concentration which caused a 50% reduction in FRET or luciferase activity. The two numbers generated for the compound plate, percent cytoxicity and percent activity were used to determine compounds of interest for further analysis.

SMILES	EC50 [nM]
CNS(=O)(=O)NC(=O)c1ccc2c(C3CCCCC3)c3n(c2c1)CC(C(=O)N1C[C@@H](C)O[C@@H](C)C1)=Cc1cc(F)ccc1-3	50 to 1000
COC(=O)c1ccc2c(C3CCCCC3)c3n(c2c1)CC(CO)Cc1ccccc1-3 (stereo not shown)	10 to 1000
CCOC(=O)/C=C/c1ccc(NC(=O)C2(NC(=O)c3ccc4c(C5CCCCC5)c5n(c4c3)CCN(C(=O)OC(C)(C)C)c3ccccc3-5)CCCC2)cc1	10 to 1000
O=C(O)c1ccc2c(C3CCCCC3)c3n(c2c1)CCCc1nccnc1-3	1000 to 10000
O=C(O)c1ccc2c(C3CCCCC3)c3n(c2c1)C(=O)NCc1ccccc1-3	> 10000
COc1cc2c(cn1)-c1c(C3CCCCC3)c3ccc(C(=O)O)cc3n1CC(C(=O)N1C[C@@H](C)O[C@@H](C)C1)=C2	1000 to 10000
COC(=O)/C=C/c1ccc(NC(=O)C2(NC(=O)c3ccc4c(C5CCCCC5)c5n(c4c3)CCCn3ccnc3-5)CCCC2)cc1	1000 to 10000
COC(=O)/C=C/c1ccc(NC(=O)C2(NC(=O)c3ccc4c(C5CCCCC5)c5n(c4c3)CC(C(=O)NCCN(C)C)=Cc3ccccc3-5)CCCC2)cc1	10 to 1000
O=C(NC1(C(=O)O)CCCC1)c1ccc2c(C3CCCCC3)c3n(c2c1)CCCCNc1ccccc1-3	1000 to 10000
COC(=O)/C=C/c1ccc(NC(=O)C2(NC(=O)c3ccc4c(C5CCCCC5)c5n(c4c3)CC(=O)N(C)c3ccccc3-5)CCCC2)cc1	10 to 1000
COC(=O)/C=C/c1ccc(NC(=O)C2(NC(=O)c3ccc4c(C5CCCCC5)c5n(c4c3)CCCc3nccnc3-5)CCCC2)cc1	1000 to 10000
O=C(O)c1ccc(-c2cnc(NC(=O)C3(NC(=O)c4ccc5c(C6CCCCC6)c6n(c5c4)CC=Cc4ccccc4-6)CCCC3)s2)cc1	10 to 1000
O=C(O)c1ccc2c(C3CCCCC3)c3n(c2c1)CCNc1ccccc1-3	1000 to 10000
O=C(O)c1ccc2c(C3CCCCC3)c3n(c2c1)CCCc1nc[nH]c1-3	> 10000
CC1=C(C(=O)N2CCOCC2)Cn2c(c(C3CCCCC3)c3ccc(C(=O)NS(=O)(=O)N(C)C)cc32)-c2ccccc21	10 to 1000
CN1C(=O)Cn2c(c(C3CCCCC3)c3ccc(C(=O)NS(=O)(=O)N(C)C)cc32)-c2ccccc21	10 to 1000
O=C(NC1(C(=O)Nc2nccs2)CCCC1)c1ccc2c(C3CCCCC3)c3n(c2c1)CC=Cc1ccccc1-3	10 to 1000
COC(=O)c1ccc2c(C3CCCCC3)c3n(c2c1)CC(C(=O)N1C[C@@H](C)O[C@@H](C)C1)=Cc1c(OC)cccc1-3	> 3300
CCOC(=O)/C=C/c1ccc(NC(=O)C2(NC(=O)c3ccc4c(C5CCCCC5)c5n(c4c3)CCNc3ccccc3-5)CCCC2)cc1	10 to 1000
CC(C)(C)OC(=O)N1CCCCn2c(c(C3CCCCC3)c3ccc(C(=O)NC4(C(=O)Nc5ccc(/C=C/C(=O)O)cc5)CCCC4)cc32)-c2ccccc21	1000 to 10000
O=C(O)/C=C/c1ccc(NC(=O)C2(NC(=O)c3ccc4c(C5CCCCC5)c5n(c4c3)CCCc3nc[nH]c3-5)CCCC2)cc1	1000 to 10000
O=C(NC1(C(=O)O)CCNCC1)c1ccc2c(C3CCCCC3)c3n(c2c1)CC=Cc1ccccc1-3	1000 to 10000
COC(=O)/C=C/c1ccc(NC(=O)C2(NC(=O)c3ccc4c(C5CCCCC5)c5n(c4c3)CCCc3nc[nH]c3-5)CCCC2)cc1	1000 to 10000
O=C(O)c1ccc2c(C3CCCCC3)c3n(c2c1)C/C=C\COc1ccccc1-3	1000 to 10000
CN1Cc2ccccc2-c2c(C3CCCCC3)c3ccc(C(=O)O)cc3n2C1=O	> 10000
